Laboratory results from the NIST ThermoML archive (doi:10.1016/j.fluid.2005.03.026).
Numbers after ± are expanded uncertainties.

Tests used:
[1] = molar heat capacity at constant pressure; xn = mol fraction of the nth substance listed; conditions: 101.3 kPa, Liquid, Small sample (50 mg) DSC
[2] = molar heat capacity at constant pressure; conditions: 101.3 kPa, Liquid, Small sample (50 mg) DSC

Cc1ccc(C)cc1 [1,4-dimethylbenzene] + CCCCCCCCCC
molar heat capacity at constant pressure [J/K/mol], [1]
Conditions | 288.15 K | 298.15 K | 308.15 K
x1 = 0.05066 | 303.41 ± 4.7 | 308.28 ± 4.8 | 313.15 ± 4.8
x1 = 0.1092 | 295.7 ± 4.6 | 300.41 ± 4.7 | 305.32 ± 4.7
x1 = 0.1983 | 283.92 ± 4.4 | 288.58 ± 4.5 | 293.34 ± 4.5
x1 = 0.3105 | 269 ± 4.2 | 273.63 ± 4.2 | 278.21 ± 4.3
x1 = 0.3427 | 264.73 ± 4.1 | 269.34 ± 4.2 | 273.97 ± 4.2
x1 = 0.4538 | 250.03 ± 3.9 | 254.47 ± 3.9 | 258.95 ± 4
x1 = 0.4919 | 244.95 ± 3.8 | 249.41 ± 3.9 | 253.84 ± 3.9
x1 = 0.5995 | 230.71 ± 3.6 | 235.12 ± 3.6 | 239.35 ± 3.7
x1 = 0.6975 | 217.77 ± 3.4 | 222.04 ± 3.4 | 226.15 ± 3.5
x1 = 0.7866 | 206.1 ± 3.2 | 210.33 ± 3.3 | 214.31 ± 3.3
x1 = 0.8403 | 199.13 ± 3.1 | 203.21 ± 3.1 | 207.08 ± 3.2
x1 = 0.8993 | 191.5 ± 3 | 195.54 ± 3 | 199.3 ± 3.1
x1 = 0.9499 | 185.04 ± 2.9 | 188.96 ± 2.9 | 192.6 ± 3

CCCCCCCCCC [decane] + COC(=O)OC
molar heat capacity at constant pressure [J/K/mol], [1]
Conditions | 288.15 K | 298.15 K | 308.15 K
x2 = 0 | 310.09 ± 4.8 | 315.04 ± 4.9 | 320.03 ± 5
x2 = 0.0486 | 302.45 ± 4.7 | 307.21 ± 4.8 | 311.97 ± 4.8
x2 = 0.1015 | 294.55 ± 4.6 | 298.95 ± 4.6 | 303.55 ± 4.7
x2 = 0.1491 | 287.67 ± 4.5 | 291.87 ± 4.5 | 296.24 ± 4.6
x2 = 0.198 | 280.61 ± 4.3 | 284.73 ± 4.4 | 288.82 ± 4.5
x2 = 0.3041 | 266.76 ± 4.1 | 269.88 ± 4.2 | 273.33 ± 4.2
x2 = 0.4015 | 255.05 ± 4 | 256.83 ± 4 | 259.45 ± 4
x2 = 0.4497 | 250.05 ± 3.9 | 250.5 ± 3.9 | 252.64 ± 3.9
x2 = 0.5505 | 242.42 ± 3.8 | 236.43 ± 3.7 | 238.36 ± 3.7
x2 = 0.6011 | 237.62 ± 3.7 | 229.81 ± 3.6 | 230.9 ± 3.6
x2 = 0.6454 | 231.62 ± 3.6 | 223.97 ± 3.5 | –
x2 = 0.6945 | 223.46 ± 3.5 | 216.47 ± 3.4 | 216.49 ± 3.4
x2 = 0.7943 | 202.82 ± 3.1 | 198.92 ± 3.1 | 199.64 ± 3.1
x2 = 0.8464 | – | 189.34 ± 2.9 | 190.56 ± 3
x2 = 0.8975 | 179.17 ± 2.8 | 180.34 ± 2.8 | 181.8 ± 2.8
x2 = 0.949 | 170.97 ± 2.6 | 172.02 ± 2.7 | 173.51 ± 2.7

COC(=O)OC [dimethyl carbonate] + Cc1ccc(C)cc1
[1], x1 = 1
Conditions | molar heat capacity at constant pressure [J/K/mol]
288.15 K | 163.61 ± 2.5
298.15 K | 164.65 ± 2.5
308.15 K | 165.92 ± 2.6

Cc1ccc(C)cc1 [1,4-dimethylbenzene] + COC(=O)OC
molar heat capacity at constant pressure [J/K/mol], [1]
Conditions | 288.15 K | 298.15 K | 308.15 K
x2 = 0 | 178.86 ± 2.8 | 182.56 ± 2.8 | 186.15 ± 2.9
x2 = 0.04522 | 178.07 ± 2.8 | 181.79 ± 2.8 | 185.28 ± 2.9
x2 = 0.09687 | 177.32 ± 2.8 | 180.82 ± 2.8 | 184.22 ± 2.9
x2 = 0.2003 | 175.72 ± 2.7 | 178.96 ± 2.8 | 182.14 ± 2.8
x2 = 0.3136 | 173.97 ± 2.7 | 176.99 ± 2.7 | 179.84 ± 2.8
x2 = 0.4125 | 172.39 ± 2.7 | 175.09 ± 2.7 | 177.74 ± 2.8
x2 = 0.4946 | 171.06 ± 2.6 | 173.56 ± 2.7 | 176.04 ± 2.7
x2 = 0.5368 | 170.43 ± 2.6 | 172.79 ± 2.7 | 175.13 ± 2.7
x2 = 0.6528 | 168.55 ± 2.6 | 170.61 ± 2.6 | 172.04 ± 2.7
x2 = 0.8445 | 165.6 ± 2.6 | 167.14 ± 2.6 | 168.84 ± 2.6
x2 = 0.9 | 164.89 ± 2.5 | 166.25 ± 2.6 | 167.79 ± 2.6

COC(=O)OC [dimethyl carbonate]
[2]
Conditions | molar heat capacity at constant pressure [J/K/mol]
288.15 K | 163.61 ± 2.5
298.15 K | 164.65 ± 2.5
308.15 K | 165.92 ± 2.6

CCCCCCCCCC [decane]
[2]
Conditions | molar heat capacity at constant pressure [J/K/mol]
288.15 K | 310.09 ± 4.8
298.15 K | 315.04 ± 4.9
308.15 K | 320.03 ± 5

Cc1ccc(C)cc1 [1,4-dimethylbenzene]
[2]
Conditions | molar heat capacity at constant pressure [J/K/mol]
288.15 K | 178.86 ± 2.8
298.15 K | 182.56 ± 2.8
308.15 K | 186.15 ± 2.9
